Measured values taken from patent EP2135604A1, “INFUSION PREPARATION FOR CANCER PATIENT” (Matsui, Hirofumi, priority 2007, dated 2008).

What was measured:
[1] = system: normal stomach mucous cell line of rat; assay: Protein levels at decreased glucose levels in the culture medium; format: cell-based
[2] = system: rat stomach cancer cell line (RGK-37); assay: BrdU uptake (ELISA) at different glucose concentrations in the growth medium; format: cell-based; settings: medium with 0, 0.3 or 1.3 g/L of glucose, 1%FBS, 1% L-glutamine, 24 hours, relative to 3 g/L glucose (= 1)
Experimental: (§1) A rat stomach mucous membrane cell line (RGM) and a rat stomach cancer cell line (RGK-37) were cultured in Gibco#11330-032 DMEM/F12 medium and L-glutamine-free Sigma#D6421 DMEM/F12 medium, respectively. Each culture was supplemented with 10% FBS and was cultured during the logarithmic growth phase. The growth medium was then replaced with a growth medium containing 0, 0.3 or 1.3 g/L of glucose and supplemented with 1%FBS and 1% L-glutamine. After 24 hours of culturing, bromodeoxyuridine (BrdU) was added to each culture. 2 hours after the addition of BrdU, the BrdU uptake was measured by ELISA. The BrdU uptake for each culture is shown in Fig. 1 relative to the uptake obtained at a glucose concentration of 3 g/L (= 1).

[3] = system: rat stomach mucous membrane cell line (RGM); assay: as above; format: cell-based; settings: medium with 0, 0.3 or 1.3 g/L of glucose, 1%FBS, 1% L-glutamine, 24 hours, relative to 3 g/L glucose (= 1)
Experimental: as §1

[4] = system: tumor cell lines of rat and human stomach cancer; assay: Protein levels at decreased glucose levels in the culture medium; format: cell-based; settings: rat stomach cancer tumor cell line; decreasing glucose levels in the culture medium
[5] = system: tumor cell lines of rat and human stomach cancer; assay: as above; format: cell-based; settings: human stomach cancer tumor cell line; decreasing glucose levels in the culture medium
[6] = system: rat stomach mucous membrane cells; assay: Chemical carcinogenesis with L-glutamine added to the growth medium; format: cell-based; settings: addition of L-glutamine to the growth medium
[7] = system: rat stomach cancer cell line (RGK-37); assay: Culture in glucose-free, 3% glutamine medium, observation under a microscope; format: cell-based; settings: RGK-37 tumor cells, absence of glucose, 120 hours
Experimental: (§2) A rat stomach mucous membrane cell line (RGM) and a rat stomach cancer cell line (RGK-37) were cultured in Gibco#11330-032 DMEM/F12 medium and Sigma#D6421 DMEM/F12 medium, respectively. Each culture was cultured in the absence of glucose and in the presence of 3% glutamine for 120 hours. Subsequently, the cells were observed under a microscope.

[8] = system: rat stomach mucous membrane cell line (RGM); assay: as above; format: cell-based; settings: RGM non-tumor cells, absence of glucose, 120 hours
Experimental: as §2

[9] = system: rats infected with Helicobacter pylori; settings: reported by Patent Document 4; cited from earlier work

| Structure (SMILES) | protein levels [1] | BrdU uptake [2] | BrdU uptake [3] | protein levels [4] | protein levels [5] | chemical carcinogenesis [6] | cell survival / apoptosis (microscope) [7] | cell survival / apoptosis (microscope) ([7]; listed as glutamine) | cell survival (microscope) [8] | cell survival (microscope) ([8]; listed as glutamine) | onset of legions resembling stomach cancer [9] |
| --- | --- | --- | --- | --- | --- | --- | --- | --- | --- | --- | --- |
| OC[C@H]1OC(O)[C@H](O)[C@@H](O)[C@@H]1O (some centres unmarked) [glucose] | no changes | decreased relatively with decreasing concentrations of glucose | relatively constant | decreased protein levels | decreased protein levels |  |  |  |  |  |  |
| NC(=O)CC[C@H](N)C(=O)O [L-glutamine] |  |  |  |  |  | suppresses chemical carcinogenesis | apoptosis is induced | apoptosis was induced | can survive | survived | ability to suppress the onset of legions resembling stomach cancer |
